Reference: ChEMBL document CHEMBL5500384, “New synergistic benzoquinone scaffolds as inhibitors of mycobacterial cytochrome bc1 complex to treat multi-drug resistant tuberculosis” (Eur J Med Chem, 2024)

Tested on: Mycobacterium tuberculosis
Assay: Antitubercular activity against Mycobacterium tuberculosis H37Rv incubated for 5 days by microtiter plate method
Type: functional
Conditions: 120 h, time 5 day

| SMILES | MIC |
| --- | --- |
| O=C1C(Cl)=C(N2C(=O)C(Cl)C2c2cccc([N+](=O)[O-])c2)C(=O)c2ccccc21 (stereo not drawn) | 12.5 µg/mL |
| O=C1C(Cl)=C(/N=C/c2ccc(Cl)cc2)C(=O)c2ccccc21 | 6.25 µg/mL |
| NNC(=O)c1ccncc1 [ISONIAZID] | 1.82 µM |
